In general, ΔTm refers to the change in melting temperature against a reference sample. For orientation: IC50 means the point on the concentration scale where inhibition reaches its midpoint.

The target of assay [1] is T1, PaMurU (Pseudomonas aeruginosa, UniProt Q9I5U0).
T1 construct: gene murU
The assay can be described thus: SUPR-DSF thermal shift (no Kd); nucleotide preference in enzyme assay. The class given is binding.

Assay [2] concerns the target T1, PaMurU. The assay can be described thus: malachite green dual-enzyme assay IC50; target assigned by ESI-MS. It counts as biochemical.
In assay [3] the target is T1, PaMurU. The assay can be described thus: malachite green dual-enzyme assay IC50; target assigned by ESI-MS; SUPR-DSF shift +[…] °C. It counts as biochemical.

T1 sequence (Q9I5U0 whole entry): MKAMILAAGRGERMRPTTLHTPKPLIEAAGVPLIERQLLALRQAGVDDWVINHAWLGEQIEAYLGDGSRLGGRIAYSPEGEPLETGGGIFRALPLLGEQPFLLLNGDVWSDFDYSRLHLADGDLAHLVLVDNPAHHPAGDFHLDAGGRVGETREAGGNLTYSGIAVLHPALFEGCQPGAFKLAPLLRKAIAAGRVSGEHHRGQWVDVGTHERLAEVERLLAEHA

In the case of `O=c1ccn([C@@H]2O[C@H](COP(=O)(O)OP(=O)(O)OP(=O)(O)O)[C@@H](O)[C@H]2O)c(=O)[nH]1` [UTP], the thermal shift (ΔTm) in assay [1] is 3.86 °C. `CCCCCCCCCCCCCCCC[N+](C)(C)C` [compound 1, CTAB] came in with a half-inhibitory concentration (IC50) in assay [2] of 8.25 µM. Turning to `Nc1c(/N=N/c2ccc(-c3ccc(/N=N/c4cc(S(=O)(=O)O)c5ccccc5c4N)cc3)cc2)cc(S(=O)(=O)O)c2ccccc12` [compound 2, 4-amino-3-[[4-[4-[(1-amino-4-sulfonatonaphthalen-2-yl)diazenyl]phenyl]phenyl]diazenyl] naphthalene-1-sulfonate], the half-maximal inhibitory concentration (IC50) in assay [3] is 14 µM.

The record behind these values is paper PMC12346966, “Targeting the Cell Wall Salvage Pathway: Dual-Enzyme Inhibition of AmgK and MurU as a Strategy Against Antibiotic Resistance” (International Journal of Molecular Sciences, 2025).
